Source: patent EP0844825B1, “INSECTICIDAL N-(SUBSTITUTED ARYLMETHYL)-4- BIS(SUBSTITUTED PHENYL OR PYRIDYL)METHYL]PIPERIDINES” (FMC CORPORATION, priority 1995, dated 1996)
Like-named read-outs stand apart in the source and are kept apart here.

Tests used:
[1] = test system: tobacco budworm (Heliothis veriscens [Fabricius]); assay: Foliar spray test on chick pea plants, tobacco budworm, 96 hour exposure; type: in vivo, Heliothis virescens; conditions: rate of application 100 ppm, dead plus moribund insects, * = average of more than one test
Procedure: (§1) Candidate insecticides with high pl50 values from the diet test were tested for insecticidal activity in foliar evaluations against tobacco budworm, beet armyworm (Spodoptera exigua [Hubner]), and cabbage looper (Trichoplusia ni [Hubner])
(§2) In these tests against tobacco budworm and beet armyworm, nine-day-old chick pea plants (Cicer arietinum) were sprayed at 20 psi to runoff on both upper and lower leaf surfaces with solutions of test chemical to provide application rates as high as 1000 ppm of test chemical. The solvent used to prepare the solutions of test chemical was 10% acetone or methanol (v/v) and 0.1% of the surfactant octylphenoxypolyethoxyethanol in distilled water. Four replicates, each containing one chick pea plant, for each rate of application of test chemical were sprayed. The treated plants were transferred to a hood, where they were kept until the spray had dried.
(§3) The four chick pea plants for each replicate treated with test chemical as described above were removed from their pots by cutting the stems just above the soil line. The excised leaves and stems from the four plants in each replicate were placed in individual 8-ounce paper cups, each containing a moistened filter paper. Five second-instar (6 days old) tobacco budworms or beet armyworms (7-8 days old) were counted into each cup, taking care not to cause injury. An opaque plastic lid was placed on each cup, which was then held in a growth chamber for a 96 hour exposure period at 25°C and 50% relative humidity. At the end of the 96 hour exposure period the cups were opened, and the numbers of dead, moribund, and live insects were counted. Using the insect counts, the efficacy of the test chemical was expressed in percent control. Percent control is derived from the total number of dead insects (TD) plus the total number of moribund insects (TM) as compared to the total number of insects (TI) in the test: % Control =(TD+TM)/(TI)x 100 [formula]
(§4) The condition of the test plants was also observed for phytotoxicity and for reduction of feeding damage as compared to an untreated control.

[2] = test system: tobacco budworm (Heliothis virescens [Fabricius]); assay: Diet test: test chemical incorporated into artificial diet of tobacco budworm larvae, 5-day exposure; type: in vivo; conditions: for IC50 / LC50 / mortality at 100 µM / pest or weed control at 100 µM: Heliothis virescens, 120 h; for LC50: read-out: pLC50 (converted); for mortality at 100 µM / pest or weed control at 100 µM: feed or water; for mortality at 100 µM: read-out: Percent Mortality; for pest or weed control at 100 µM / Percent Growth Inhibition: rate of application 4 (negative log of molar concentration in the diet), second instar larvae, 25°C; for pest or weed control at 100 µM: read-out: Percent Growth Inhibition
Procedure: Candidate insecticides were incorporated into an artificial diet for evaluation of insecticidal activity against the tobacco budworm (Heliothis virescens [Fabricius]) in the following manner. Stock solutions of test chemical in dimethyl sulfoxide, ranging from […], were prepared for each rate of application. One hundred microliters of each of the stock solutions was manually stirred into 50 mL of a molten (65-70°C) wheat germ-based artificial diet. The 50 mL of molten diet containing the test chemical was poured evenly into twenty wells in the outer two rows on each side of a twenty-five well, five row plastic tray. (Each well in the tray was about 1 cm in depth, with an opening of 3 cm by 4 cm at the lip.) Molten diet containing only dimethyl sulfoxide at the levels used in the test chemical-treated diet was poured into the five wells in the third (center) row of the tray. Each tray therefore contained one test chemical at a single rate of application, together with an untreated control. The rates of application, expressed as the negative log of the molar concentration, and the corresponding concentrations of the stock solution prepared for each rate are shown below:
Single second instar tobacco budworm larvae, selected at a stage of growth at which they uniformly weigh about 5 mg each, were placed in each well. Upon completion of infestation, a sheet of clear plastic was heat-sealed over the top of the tray by use of a common household flat.iron. The trays were held at 25°C at 60% relative humidity for five days in a growth chamber. Lighting was set at 14 hours of light and 10 hours of darkness. After the 5-day exposure period, mortality counts were taken, and the surviving insects were weighed. From the weights of the surviving insects that fed on the treated diet as compared to those insects that fed on the untreated diet, the percent growth inhibition caused by each test chemical was determined. […] Also, where possible, the negative log of the concentration of the test chemical that provided 50% mortality (pLC50) was determined.

[3] = test system: beet armyworm (Spodoptera exigua [Hubner]); assay: Foliar spray test on chick pea plants, beet armyworm, 96 hour exposure; type: in vivo; conditions: rate of application 100 ppm, dead plus moribund insects, * = average of more than one test
Procedure: as §1, §2, §3, §4

[4] = test system: cabbage looper (Trichoplusia ni [Hubner]); assay: Foliar spray test on pinto bean plants, cabbage looper, 96 hour exposure; type: in vivo; conditions: rate of application 100 ppm, dead plus moribund insects, * = average of more than one test
Procedure: as §1, §2, §3, §4
Foliar tests with cabbage looper were conducted in the same manner as described above, the difference being that pinto bean plants (Phaseolus vulgaris) were used in place of chick pea plants.

[5] = negative log of the concentration that provides 50% growth inhibition, by linear regression, 5 days, * = average of more than one test, read-out: pl50 (converted)
[6] = negative log of the concentration that provides 50% mortality, 5 days, * = average of more than one test
[7] = 5 days, * = average of more than one test
[8] = negative log of the concentration that provides 50% growth inhibition, by linear regression, 5 days, * = average of more than one test

| Compound | Percent Control TBW [1] | IC50 [2, 5] | LC50 [2, 6] | mortality at 100 µM [2] | pest or weed control at 100 µM [2, 7] | Percent Control BAW [3] | Percent Control CL [4] | pl50 [2, 8] | Percent Growth Inhibition [2, 7] | LC50 [2] | IC50 ([2]; read-out: pl50) |
| --- | --- | --- | --- | --- | --- | --- | --- | --- | --- | --- | --- |
| COc1ccc(CN2CCC(C(O)(c3ccc(OC(F)(F)F)cc3)c3ccc(OC(F)(F)F)cc3)CC2)cc1 [Compound 1, N-(4-methoxyphenylmethyl)-4-[bis(4-trifluoromethoxyphenyl)hydroxymethyl]piperidine] | 80% | 794 nM | 25100 nM | 100% | 100% | 55% | 100% |  |  |  |  |
| Cn1nnc(-c2ccc(CN3CCC(C(O)(c4ccc(OC(F)(F)F)cc4)c4ccc(OC(F)(F)F)cc4)CC3)cc2)n1 [Compound 9, N-[4-(2-methyl-2H-tetrazol-5-yl)phenylmethyl]-4-[bis(4-trifluoromethoxyphenyl)hydroxymethyl]piperidine] | 100% | ≤ 316 nM | 2510 nM | 100% | 100% | 100% | 100% | 6.6 |  |  |  |
| Cn1nnc(-c2ccc(CN3CCC(C(O)(c4ccc(C(F)(F)F)cc4)c4ccc(C(F)(F)F)cc4)CC3)cc2)n1 [Compound 31, N-[4-(2-methyl-2H-tetrazol-5-yl)phenylmethyl]-4-[bis(4-trifluoromethylphenyl)hydroxymethyl]piperidine] | 100% | ≤ 316 nM | 2510 nM | 100% | 100% | 100* % | 100% |  |  |  |  |
| Cn1nnc(-c2ccc(C[N+]3([O-])CCC(C(O)(c4ccc(C(F)(F)F)cc4)c4ccc(C(F)(F)F)cc4)CC3)cc2)n1 (stereo not drawn) [Compound 32, N-[4-(2-methyl-2H-tetrazol-5-yl)phenylmethyl]-4-[bis(4-trifluoromethylphenyl)hydroxymethyl]piperidine N-oxide] | 100% | ≤ 316 nM | 2510 nM | 100% | 100% | 100* % | 100% |  |  |  |  |
| CCn1nnc(-c2ccc(CN3CCC(C(O)(c4ccc(C(F)(F)F)cc4)c4ccc(C(F)(F)F)cc4)CC3)cc2)n1 [Compound 33] | 100% | ≤ 316 nM | 794 nM | 100% |  | 100% | 95% | 6.6 | 99% |  |  |
| CCn1nnc(-c2ccc(C[N+]3([O-])CCC(C(O)(c4ccc(C(F)(F)F)cc4)c4ccc(C(F)(F)F)cc4)CC3)cc2)n1 (stereo not drawn) [Compound 34] | 100% | ≤ 316 nM | 1260 nM | 100% |  | 100% | 100% |  | 100% |  |  |
| CC(Oc1ccc(CN2CCC(C(O)(c3ccc(C(F)(F)F)cc3)c3ccc(C(F)(F)F)cc3)CC2)cc1)c1ccccn1 (stereo not drawn) [Compound 83] |  | 1000 nM | 31600 nM | 100% |  |  |  |  | 100% |  |  |
| CC(Oc1ccc(C[N+]2([O-])CCC(C(O)(c3ccc(C(F)(F)F)cc3)c3ccc(C(F)(F)F)cc3)CC2)cc1)c1ccccn1 (stereo not drawn) [Compound 84] |  |  |  | 100% |  |  |  |  |  |  |  |
| CC(C)(Oc1ccc(CN2CCC(C(O)(c3ccc(C(F)(F)F)cc3)c3ccc(C(F)(F)F)cc3)CC2)cc1)c1ccccn1 [Compound 86] |  |  |  | 30% |  |  |  |  |  |  |  |
| OC(c1ccc(C(F)(F)F)cc1)(c1ccc(C(F)(F)F)cc1)C1CCN(Cc2ccc(Oc3ncccn3)cc2)CC1 [Compound 95] |  |  |  | 100% |  |  |  |  |  |  |  |
| [O-][N+]1(Cc2ccc(Oc3ncccn3)cc2)CCC(C(O)(c2ccc(C(F)(F)F)cc2)c2ccc(C(F)(F)F)cc2)CC1 (stereo not drawn) [Compound 96] |  |  |  | 100% |  |  |  |  |  |  |  |
| OC(c1ccc(C(F)(F)F)cc1)(c1ccc(C(F)(F)F)cc1)C1CCN(Cc2ccc(-c3nnn(CCF)n3)cc2)CC1 [Compound 98] |  |  |  | 100% |  |  |  |  |  |  |  |
| [O-][N+]1(Cc2ccc(-c3nnn(CCF)n3)cc2)CCC(C(O)(c2ccc(C(F)(F)F)cc2)c2ccc(C(F)(F)F)cc2)CC1 (stereo not drawn) [Compound 99] |  |  |  | 100% |  |  |  |  |  |  |  |
| OC(c1ccc(C(F)(F)F)cc1)(c1ccc(C(F)(F)F)cc1)C1CCN(Cc2ccc(-c3ncccn3)cc2)CC1 [Compound 100] |  |  |  | 100% |  |  |  |  |  |  |  |
| [O-][N+]1(Cc2ccc(-c3ncccn3)cc2)CCC(C(O)(c2ccc(C(F)(F)F)cc2)c2ccc(C(F)(F)F)cc2)CC1 (stereo not drawn) [Compound 101] |  |  |  | 100% |  |  |  |  |  |  |  |
| CCCOc1ccc(CN2CCC(C(O)(c3ccc(C(F)(F)F)cc3)c3ccc(C(F)(F)F)cc3)CC2)cc1 [Compound 102] | 98* % |  |  | 100% |  | 100* % | 100* % |  | 100% | 3160 nM | < 1000 nM |
| OC(c1ccc(OC(F)(F)F)cc1)(c1ccccc1OC(F)(F)F)C1CCN(Cc2ccc(C3OCCO3)cc2)CC1 (stereo not drawn) [Compound 103, N-[4-(1,3-dioxolan-2-yl)phenylmethyl]-4-[(4-trifluoromethoxyphenyl)(2-trifluoromethoxyphenyl)hydroxymethyl]piperidine] |  | ≤ 316 nM | 12600 nM | 100% | 100% |  |  |  |  |  |  |
| CCn1nnc(-c2ccc(CN3CCC(C(O)(c4ccc(C(F)(F)F)cn4)c4ccc(C(F)(F)F)cn4)CC3)cc2)n1 [Compound 104] |  | ≤ 316 nM | 398 nM | 100% |  |  |  | 6.8 | 100% |  |  |
